Data taken from publication PMC11988454, “Discovery of synthetic small molecules targeting the central regulator of Salmonella pathogenicity” (Science Advances, 2025).
pIC50: −log10 of the molar value.

Columns and labels:
HeLa cells = assay: Cytotoxicity, CellTox Green Cytotoxicity Assay, HeLa; assay type: cell-based; conditions: exposure time 18 h
Procedure: In vitro toxicity of compound C26 was assessed in HeLa cells (ATCC CCL-2) using the ApoTox-Glo Triplex Assay and in macrophages RAW 264.7-LgBiT using the CellTox Green Cytotoxicity Assay (Promega, USA) according to the manufacturer’s instructions. The screening of in vitro toxicity of the compound analogs was performed with the CellTox Green Cytotoxicity Assay (Promega, USA) according to the manufacturer’s instructions. Cells (10^4 cells per well) were seeded into a 96-well plate and incubated for 24 hours at 37°C, 5% (v/v) CO2. Cells were then treated with the compound at different concentrations or 1% (v/v) DMSO in Dulbecco’s modified Eagle’s medium (DMEM) without phenol red at the desired exposure time. Fluorescence intensity was measured with a TECAN Spark microplate reader. Cytotoxicity [relative fluorescence units (RFU)] and viability (RFU) values were plotted to calculate the TC50 using GraphPad Prism 10.1.1.
Compound concentration (µM) […]
in vitro cytotoxicity of C26 and analogs. Cytotoxicity assessed with CellTox™ Green Cytotoxicity Assay with an exposure time of 18 h. N = 3 biological replicates. Data were plotted and TC50 values were generated with GraphPad Prism 10.1.1.
(1 picture or pasted object on this page, not shown here)

[1] = tested on: S. Typhimurium invasion of HeLa cells; assay: Invasion assay into HeLa cells; assay type: cell-based; conditions: C26 100 μM, MOI 20
Procedure: In a white 24-well plate (NUNC), 10^5 HeLa cells were seeded in 350 μl of DMEM (Gibco), 24 hours before the infection. Bacteria were grown in LB supplemented with 0.3 M NaCl and either compound at different concentrations or 1% (v/v) DMSO, at 37°C with shaking at 180 rpm until an OD600 of 0.9 was reached. Bacteria were then pelleted and washed twice with HBSS. The bacterial suspension was diluted to obtain an MOI of 20 to infect HeLa cells. The plate was centrifuged for 5 min at 300g to synchronize the infection and then incubated for 25 min at 37°C and 5% (v/v) CO2 to allow Salmonella invasion into HeLa cells. To quantify the invasiveness, the cells were first washed three times with 500 μl of prewarmed PBS. The remaining extracellular bacteria were killed with 500 μl of DMEM supplemented with gentamicin (100 μg/ml). HeLa cells were incubated for 1 hour and then washed three times with prewarmed PBS and lysed with 500 μl of 0.5% (v/v) SDS in PBS for 5 min at 37°C on a shaking platform. The lysate was serial diluted in PBS-T [PBS with 0.05% (v/v) Tween 20] to determine the colony-forming units (CFUs) by plating on LB medium supplemented with streptomycin (50 μg/ml).

HilD variants = assay: Plasmid-based whole-cell assay, most frequent HilD substitutions; parameters: species or system S. enterica; conditions: C26 100 μM, 19 functional variants
Procedure: The retrieved sequences and script used to determine the most frequent point mutations in HilD can be accessed on the Zenodo repository. Site-directed mutagenesis was performed using KOD polymerase (Novagen). PhilA activation was monitored as described above using the plasmid-based whole-cell fluorescence assay.

male ICR mice = assay: Maximum tolerated dose (MTD) experiment, oral
Procedure: C26 was formulated in 5% Tween 20 (v/v), 50% lecithin (from soy bean: 40 mg in 800 μl of distilled water), and 45% PBS at 0.6, 2, and 6 mg/ml for oral administration. A dosing volume of 5 ml/kg was applied. C26 was administered orally to groups of three male Institute of Cancer Research (ICR) mice (23 ± 3 g) at an initiating dose of 3 mg/kg in an MTD setup. The animals received an initial dose of 3 mg/kg. If the animals survived for 72 hours, the group (10 mg/kg) was tested. If the animals survived for 72 additional hours, the group (30 mg/kg) was tested. Experiments were performed by Pharmacology Discovery Services Taiwan Ltd., in general accordance with the “Guide for the Care and Use of Laboratory Animals: Eighth Edition” (National Academies Press, Washington, DC, 2011). The animal care and protocol were reviewed and approved by the Institutional Animal Care and Use Committee (IACUC) at Pharmacology Discovery Services Taiwan Ltd.

T3SS-1 (SipA secretion) = assay: SipA-NLuc secretion assay (NanoLuc luciferase); assay type: cell-based, S. Typhimurium; conditions: Salmonella enterica, read-out: IC50 SipA secretion
Procedure: (A) NanoLuc Luciferase assay to screen T3SS-1 inhibitors in 384-well plates. Compounds were screened at a final concentration of 100 μM (N = 3 replicates). Cultures with strains sipA-NLuc and ΔinvA, sipA-NLuc with 1% (v/v) DMSO were used as positive and negative controls, respectively. […] 100% relative SipA secretion corresponds to the luminescence intensity of the WT strain grown in the presence of 1% (v/v) DMSO. The relative SipA secretion of the ∆invA mutant was considered as the bottom (N = 2 technical replicates within N = 3 biological replicates).
For compound screening, 50 μl of overnight cultures of Salmonella with an approximate optical density at 600 nm (OD600) of 2 were diluted in fresh LB medium to an OD600 of 0.05 and added to 384-well plates (Nunc MaxiSorp, white) containing 5 nmol of screening compound per well, for a final compound concentration of 100 μM. The plates were incubated for 5 hours at 37°C with shaking at 180 rpm, upon which the bacteria were removed. The plates were washed with phosphate-buffered saline (PBS) [137 mM NaCl, 2.7 mM KCl, 10 mM Na2HPO4, and 1.8 mM KH2PO4 (pH 7.4)] using a Tecan HydroSpeed plate washer. Residual PBS after washing was removed, and 50 μl of NanoLuc working solution (NanoGlo, Promega) was added to the wells. Luminescence was then measured using a Tecan Sparc Multimode reader. […]

HilD-HilE heterodimer = HilD-HilE heterodimer (Salmonella typhimurium, UniProt P0CL08); assay: MST dimerization assay HilD-HilE; assay type: binding, S. Typhimurium; conditions: 100 μM compound
Sequence of HilD-HilE heterodimer (P0CL08 whole entry, one chain of several): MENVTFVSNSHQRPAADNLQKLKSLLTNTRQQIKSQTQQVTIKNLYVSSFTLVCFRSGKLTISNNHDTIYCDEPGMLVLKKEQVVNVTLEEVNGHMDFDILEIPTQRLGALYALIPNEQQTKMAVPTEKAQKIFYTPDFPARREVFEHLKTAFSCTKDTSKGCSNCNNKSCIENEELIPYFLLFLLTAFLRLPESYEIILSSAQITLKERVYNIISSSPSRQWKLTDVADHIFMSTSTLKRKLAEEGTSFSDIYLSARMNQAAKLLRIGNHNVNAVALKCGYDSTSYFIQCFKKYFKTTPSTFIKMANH
Procedure: MST measurements for the binding of HilD to HilE were performed as previously described ([39]). In summary, enhanced yellow fluorescent protein (EYFP)-HilD (100 nM) was incubated with 100 μM either oleic acid or C26 [with a final concentration of 1% (v/v) DMSO] for 10 min at r.t. (22° to 25°C) and subsequently mixed 1:1 with varying concentrations of HilE. Samples were incubated together for 10 min at r.t., centrifuged for 5 min, and loaded to standard capillaries (NanoTemper Technologies GmbH, no. MO-K022). MST runs were performed at 25°C on a NanoTemper Monolith NT.115, with an excitation power of 60% and medium MST power. Data were analyzed using the MO.Affinity Analysis v2.3 software, and affinity constants were calculated using the Kd model.

[2] = tested on: S. Typhimurium invasion of MDCK cells; assay: Invasion assay into MDCK cells; assay type: cell-based; conditions: C26 100 μM, MOI 5; DMSO control 6.85
Procedure: MDCK (NBL-2) cells were seeded in a 24-well plate at a density of 10^5 cells per well in 1 ml of MEM (Gibco) and grown for 5 to 6 days, to allow polarization. Cells were washed every 2 days with fresh medium. After 5 days, each well contained ~1.8 × 10^6 MDCK cells. Bacteria were grown as for the invasion assay of HeLa cells and diluted to obtain an MOI of 5. The plate was centrifuged for 3 min at 300g to synchronize the infection and then incubated for 25 min at 37°C and 5% (v/v) CO2 to allow Salmonella invasion into MDCK cells. The quantification of invasiveness was carried out as described above for HeLa cells.

In the case of `CN(CC(=O)NCc1ccc2c(c1)OCO2)Cc1ccc(Br)s1` [C26, N-(benzo[d][1,3]dioxol-5-ylmethyl)-2-{[(5-bromothiophen-2-yl)methyl](methyl)amino}acetamide], the TC50 cytotoxicity (HeLa cells) was greater than 100 µM, the “invasiveness of HilDY46A mutant into HeLa cells” value [1] was “unaffected” and the “Invasion of HeLa cells (%), of the original inoculum” value ([1]; DMSO control 11.75) was 3.5%. The “activity on the most frequent HilD substitution variants” value (HilD variants) was “inhibitory activity on all the tested variants at a level similar to that of the WT reference sequence”, the “Toxicity (death / test)” value (male ICR mice; PO 3 mg/kg, 1 h) was 0/3 and the “Toxicity (death / test)” value (male ICR mice; PO 3 mg/kg, 2 h) was 0/3. The “Toxicity (death / test)” value (male ICR mice; PO 3 mg/kg, 24 h) was 0/3, the “Toxicity (death / test)” value (male ICR mice; PO 3 mg/kg, 48 h) was 0/3 and the “Toxicity (death / test)” value (male ICR mice; PO 3 mg/kg, 72 h) was 0/3. The “Toxicity (death / test)” value (male ICR mice; PO 10 mg/kg, 1 h) was 0/3, the “Toxicity (death / test)” value (male ICR mice; PO 10 mg/kg, 2 h) was 0/3 and the “Toxicity (death / test)” value (male ICR mice; PO 10 mg/kg, 24 h) was 0/3. The “Toxicity (death / test)” value (male ICR mice; PO 10 mg/kg, 48 h) was 0/3, the “Toxicity (death / test)” value (male ICR mice; PO 10 mg/kg, 72 h) was 0/3 and the “Toxicity (death / test)” value (male ICR mice; PO 30 mg/kg, 1 h) was 0/3. The “Toxicity (death / test)” value (male ICR mice; PO 30 mg/kg, 2 h) was 0/3, the “Toxicity (death / test)” value (male ICR mice; PO 30 mg/kg, 24 h) was 0/3 and the “Toxicity (death / test)” value (male ICR mice; PO 30 mg/kg, 48 h) was 0/3. The “Toxicity (death / test)” value (male ICR mice; PO 30 mg/kg, 72 h) was 0/3, the abnormalities at termination (male ICR mice; mouse, in vivo) was “no notable abnormalities” and the “Body weight (g) 72 h” value (male ICR mice; mouse, in vivo, po, 3 mg/kg) was 29 g. The “Body weight (g) Pre-dose” value (male ICR mice; mouse, in vivo, po, 10 mg/kg) was 25 g, the “mortality and adverse effects” value (male ICR mice; oral 3, 10 and 30 mg/kg, mice) was “Neither mortality nor notable adverse effects” and the pIC50 (T3SS-1 (SipA secretion)) was 4.53. For the same compound, the “formation of HilD-HilE heterodimers” value (HilD-HilE heterodimer) was “no effect on heterodimerization” and the “Invasion of MDCK cells (%), of the original inoculum” value [2] was 1.6%.
